In the supplement of paper PMC10331698:
± gives the standard deviation of the averaged measurements.

What was measured:
Perfluorooctanoic acid = compound: O=C(O)C(F)(F)C(F)(F)C(F)(F)C(F)(F)C(F)(F)C(F)(F)C(F)(F)F [Perfluorooctanoic acid]; experiment: level (log10 ratio to DMSO vehicle control); higher = higher biomarker level / cell amount than vehicle control; settings: in DMSO
Method: (§1)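 BioMAP Diversity Plus panel of 12 human primary cell co-culture systems (3C, 4H, LPS, SAg, BT, BF4T, BE3C, CASM3C, HDF3CGF, KF3CT, MyoF, Mphg). Compounds were added 1 h before stimulation and left for 24 h (MyoF 48 h; BT 72 h for soluble read-outs or 6 d for IgG). Biomarkers were read by ELISA, cytotoxicity by SRB, PBMC viability and proliferation by Alamar Blue. Each well value was divided by the mean of 8 DMSO control wells on the same plate and log10 transformed; duplicate blinded samples were tested at 4 concentrations.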

[1] = compound: C=CC(=O)OCC(F)(F)C(F)(F)C(F)(F)C(F)(F)C(F)(F)C(F)(F)C(F)(F)C(F)F [1H,1H,9H-Perfluorononyl acrylate]; experiment: as above; settings: in DMSO
Method: as §1

Test System	level (log10) (Perfluorooctanoic acid; 6700 nM)	level (log10) (Perfluorooctanoic acid; 20000 nM)	level (log10) (Perfluorooctanoic acid; 60000 nM)	level (log10) ([1]; 6700 nM)	level (log10) ([1]; 20000 nM)	level (log10) ([1]; 60000 nM)
BF4T:SRB	-0.008 ± 0.0099	0.0015 ± 0.0064	-0.0005 ± 0.013	-0.0045 ± 0.005	-0.001 ± 0.016	0.0065 ± 0.021
BF4T:tPA	-0.065 ± 0.05	-0.0715 ± 0.03	-0.093 ± 0.031	-0.0135 ± 0.028	-0.006 ± 0.011	-0.0395 ± 0.026
BF4T:uPA	-0.0245 ± 0.023	-0.0315 ± 0.016	-0.0185 ± 0.013	-0.0055 ± 0.023	-0.0075 ± 0.018	-0.002 ± 0.018
BT:B cell Proliferation	0.0195 ± 0.018	0.027 ± 0.021	0.097 ± 0.0099	-0.034 ± 0.0042	-0.0415 ± 0.0035	-0.253 ± 0.15
BT:PBMC Cytotoxicity	-0.001 ± 0.028	0.0565 ± 0.013	0.105 ± 0.033	-0.047 ± 0.0085	-0.1 ± 0.0085	-0.287 ± 0.1
BT:Secreted IgG	0.0095 ± 0.026	-0.005 ± 0.013	-0.0165 ± 0.0078	-0.011 ± 0.027	-0.0185 ± 0.039	-0.412 ± 0.43
BT:sIL-2	0.0385 ± 0.11	0.039 ± 0.093	0.046 ± 0.12	0.118 ± 0.042	-0.0285 ± 0.11	-0.514 ± 0.61
BT:sIL-6	0.024 ± 0.03	-0.0095 ± 0.035	0.0025 ± 0.0078	-0.073 ± 0.018	-0.269 ± 0.07	-0.693 ± 0.5
BT:sIL-17A	0.009 ± 0.048	-0.165 ± 0.11	-0.0845 ± 0.12	-0.174 ± 0.019	-0.509 ± 0.17	-1.28 ± 0.4
BT:sIL-17F	0.032 ± 0.04	0.0665 ± 0.11	0.095 ± 0.035	-0.175 ± 0.05	-0.483 ± 0.2	-0.84 ± 0.25
BT:sTNF-alpha	0.0755 ± 0.044	0.097 ± 0.047	0.166 ± 0.11	-0.111 ± 0.039	-0.281 ± 0.065	-0.827 ± 0.71
LPS:CCL2/MCP-1	-0.0035 ± 0.00071	0.013	0.0525 ± 0.022	-0.023 ± 0.021	-0.007 ± 0.045	-0.055 ± 0.0085
LPS:CD40	0.006 ± 0.025	-0.032 ± 0.057	-0.0815 ± 0.022	-0.001 ± 0.05	-0.0785 ± 0.029	-0.181 ± 0.064
LPS:CD62E/E-Selectin	0.009 ± 0.017	-0.01 ± 0.02	0.029 ± 0.016	-0.002 ± 0.027	0.0165 ± 0.026	-0.008
LPS:CD69	0.0445 ± 0.096	0.0475 ± 0.046	-0.025 ± 0.092	-0.0345 ± 0.011	-0.062 ± 0.011	-0.102 ± 0.023
LPS:CD106/VCAM-1	0.0085 ± 0.0021	-0.006 ± 0.013	-0.0165 ± 0.0035	-0.002 ± 0.011	-0.0365 ± 0.019	-0.0565 ± 0.0021
LPS:CD141/Thrombomodulin	0.068 ± 0.076	0.0185 ± 0.077	0 ± 0.03	-0.028 ± 0.0042	-0.0695 ± 0.035	-0.108 ± 0.021
